1 compound from US20130338183A1, “COMPOSITIONS AND METHODS FOR MOBILIZING STEM CELLS” (The Johns Hopkins University, priority 2010, published 2013) can be followed below.

The assay relates to Lin-CD133+ cells in peripheral blood. In words: Mobilization of bone marrow stem cells: Lin-CD133+ cells in peripheral blood by CBC and flow cytometry after subcutaneous injection. The settings on record: low dose FK-506 (0.05 mg/kg, 0.1 mg/kg) subcutaneous, 3 hours after injection, Lewis rats. The format is in vivo. From the text: Rat Strains and Care. Lewis (RT1^1) rats were purchased from Harlan ague-Dawley (Indianapolis, Ind.) and used at 8-10 weeks of age. Animals were maintained in the specific pathogen-free facility of Johns Hopkins Medical Institutions. Animals were cared for according to NIH guidelines and under a protocol approved by the Johns Hopkins University Animal Care Committee.
Experimental Groups and Animal Treatment. Lewis rats were divided by six groups including control group (treated with same volume of saline) and low dose of FK-506 (0.05 mg, 0.1 mg or 1.0 mg/kg). FK506 was injected subcutaneously. Animals were sacrificed at 3 hours after injection. Spleen and peripheral blood were collected. Blood cell count was performed in animal pathology laboratory at Johns Hopkins.
Flow Cytometry. Single-cell suspensions (5×10^5) of peripheral blood monocytes were analyzed for lineage negative and CD133 expression. Nonspecific antibody binding was blocked with goat and rat serum (Sigma) for 30 minutes.
In this study, lineage negative (Lin−) CD133+ stem cell population in peripheral blood and spleen were quantified after FK-506 treatment. Complete blood count (CBC) was measured and stem cell markers were quantified by flow cytometry. The absolute number of stem cells was calculated as WBC (−thous./uL)×% of stem cells.
Background: A flow cytometer gives signals particle by particle.

Turning to `C=CC[C@@H]1/C=C(\C)C[C@H](C)C[C@H](OC)[C@H]2O[C@@](O)(C(=O)C(=O)N3CCCC[C@H]3C(=O)O[C@H](/C(C)=C/[C@@H]3CC[C@@H](O)[C@H](OC)C3)[C@H](C)[C@@H](O)CC1=O)[C@H](C)C[C@@H]2OC` [FK-506, Tacrolimus], the “increase of absolute number of Lin-CD133+ cells in peripheral blood compared to saline treated animals” value was “about 3 times”.
